In US6974804B2, “Esters” (Unilever Home & Personal Care USA, division of Conopco, Inc., priority 2000, dated 2005):

Legend:
Assay type in all cases: physicochemical
[1] = Gelling of water-immiscible cosmetic liquids in 96 well glass micro-titre plate; parameters: key: gel; g4: gel after overnight (18 hrs) storage at 4° C.; g22: gel after overnight (18 hrs) storage at 22° C.; sg: soft gel; sg22: soft gel after overnight (18 hrs) storage at 22° C.; solution; *: the test at 4° C. was not carried out; details: for gelling of ISA: 150° C. 2.5 hours, cooled to ambient
Summary of the method: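 Esterified cellobiose at about 5% or 10% was mixed with the cosmetic liquid in lidded glass wells and heated at 150 °C for 2.5 h, then cooled to ambient. Gelling was judged by visual inspection and micro-spatula probing after cooling, after 18 h at 18 °C, and after a further 18 h at 4 °C.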

[2] = DSC of gels: fibre dissolution temperature (FDT) and solubility of structurant; details: for Solubility of structurant at 25° C.: from DSC of gel, relative to benchmark REF 2; for FDT: gel heated at 5 K/min in DSC, peak temperature of the highest peak
Experimental: In this Example the Fibre dissolution temperature (FDT) is measured in the DSC process described later herein, by observing when the fibres dissolve whilst the temperature of sample rises. FDT is taken to be the peak temperature of the highest peak.
In REF2 and REF3, the acyl substituents at the other seven cellobiose sites are nonanoyl.
Samples of gel (about 20 mg) were sealed in stainless steel capsules for DSC. An empty stainless steel capsule was used as the physical reference. The samples were subjected to the following temperature programme:
The sample was heated to 100° C. and held at 100° C. for 1 minute, in order to obtain an isotropic solution. The sample was then cooled at 5 K/min to −20° C. The sample was held at −20° C. for 1 minute. The sample is now a gel on the bottom of the sample capsule prepared in a reproducible manner. The gel was then heated at 5 K/min to 100° C. Data was also obtained with empty stainless steel pans as both physical sample and reference. This blank data was later subtracted from the sample data to remove any curvature in the base line.

[3] = Stability testing of gels: crystal growth visible by eye on storage at 37° C.; details: for Observations: 9% of REF1 and 1% of additional structurant
Experimental: Gels were made up using 10% structurant in a 60:40 mixture of Hydrogenated Polyisobutene (Panalene L14E):DC245. The gels, in sealed glass bottles, were left to stand for 18 hrs at room temperature, after which they were transferred to an oven thermostatically controlled to 37° C. Samples were checked periodically for signs of crystal growth visible by eye. REF1 is cellobiose octanonanoate.
Gels were made up and tested in accordance with the procedure in Example 6, as such or modified by employing a weight ratio of 9% of REF1 and 1% of an additional structurant as specified in Table 13 below.
The test procedure of Example 9 was repeated, but using ACB structurant REF2 alone as the structurant or to which a CHME structurant was added.

[4] = Visual assessment score (clarity of gel in 1 cm cuvette); details: for Clarity Visual (assessment score): 9% REF2 and 1% of the specified ester in 60:40 hydrogenated polydecene:DC245, scale −12 to 8; for Clarity Visual (appearance): 60:40 hydrogenated polydecene:DC245 gelled with 9% REF2 and 1% of the specified cellobiose ester
Description: A gel contained within a 1 cm thick cuvette was placed directly on to a sheet of white paper on which 21 sets of figures where printed in black. The size and thickness of the figures varied systematically and were numbered from −12 (the largest, thickest set) through 0 to 8 (the smallest thinnest set) The score given to each gel was the highest numbered set which could be read clearly through the gel, the higher the number, the higher the clarity.

[5] = Light transmission at 580 nm (% T); details: for Clarity % T: 9% REF2 and 1% of the specified ester in 60:40 hydrogenated polydecene:DC245, 580 nm
Experimental: The translucency of a composition may be measured by placing a sample of standardised thickness in the light path of a spectrophotometer and measuring transmittance, as a percentage of light transmitted in the absence of the gel.
This test was carried out using a dual-beam spectrophotometer. The sample of composition was poured hot into a 4.5 ml cuvette made of poly(methyl-methacrylate) (PMMA) and allowed to cool to an ambient temperature of 20-25° C. Such a cuvette gives a 1 cm thickness of composition. […] A transmittence measured at any temperature in the range from 20-25° C. is usually adequately accurate, but measurement is made at 22° C. if more precision is required.

[6] = 5% cellobiose ester in Finsolv TN
[7] = 5% cellobiose ester in Fluid AP
[8] = 5% cellobiose ester in Mineral oil
[9] = 5% cellobiose ester in Polydecene
[10] = 10% cellobiose ester in Finsolv TN
[11] = 10% cellobiose ester in Fluid AP
[12] = 10% cellobiose ester in Mineral oil
[13] = 10% cellobiose ester in Polydecene
[14] = 10% structurant in 60:40 Panalene L14E:DC245, after 17 days at 37° C.

Structure (SMILES)	gelling of DC556 ([1]; 5% cellobiose ester in DC556)	gelling of Finsolv TN [1, 6]	gelling of Fluid AP [1, 7]	gelling of IPM ([1]; 5% cellobiose ester in IPM)	gelling of ISA ([1]; 5% cellobiose ester in ISA)	gelling of Mineral oil [1, 8]	gelling of Polydecene [1, 9]	gelling of DC556 ([1]; 10% cellobiose ester in DC556)	gelling of Finsolv TN [1, 10]	gelling of Fluid AP [1, 11]	gelling of IPM ([1]; 10% cellobiose ester in IPM)	gelling of ISA ([1]; 10% cellobiose ester in ISA)	gelling of Mineral oil [1, 12]	gelling of Polydecene [1, 13]	Solubility of structurant at 25° C. [2]	FDT [2] [°C]	Clarity Visual (assessment score) [4]	Clarity Visual (appearance) [4]	Clarity % T [5] [%]	Observation [3, 14]	other results
CCCCCCCCC(=O)OCC1OC(OC2C(COC(=O)CCCCCCCC)OC(OC(=O)c3ccccc3)C(OC(=O)CCCCCCCC)C2OC(=O)CCCCCCCC)C(OC(=O)CCCCCCCC)C(OC(=O)CCCCCCCC)C1OC(=O)CCCCCCCC (mixture of isomers) [Ex 1.1]	gel	g4	gel	g4	g22	gel	gel	gel	gel	gel	gel	gel	gel	gel	Less soluble. No	64	translucent 5	transparent/	55		Observations ([3]; after 11 days at 37° C.): Slight crystal growth on surface after 11; Observation ([3]; REF2 to which the CHME structurant was added, after 12 days at 37° C.): No crystals after 12 days at 37 °C
CCCCCCCCC(=O)OCC1OC(OC2C(COC(=O)CCCCCCCC)OC(OC(=O)c3ccccc3)C(OC(=O)CCCCCCCC)C2OC(=O)CCCCCCCC)C(OC(=O)CCCCCCCC)C(OC(=O)CCCCCCCC)C1OC(=O)CCCCCCCC (mixture of isomers) [Ex 1.2]	gel	sol	sg	sol	sg	sg	gel	gel	sol	gel	sol	gel	gel	gel	Less soluble. No	67	translucent 4	transparent/	38	No crystals after 17 days.	
CCCCCCCCC(=O)OCC1OC(OC2C(COC(=O)CCCCCCCC)OC(OC(C)=O)C(OC(=O)CCCCCCCC)C2OC(=O)CCCCCCCC)C(OC(=O)CCCCCCCC)C(OC(=O)CCCCCCCC)C1OC(=O)CCCCCCCC (mixture of isomers) [Ex 1.5]	g22		gel		g22	g22	gel	gel		gel		gel	gel	gel	Less soluble. No	50	> 8	transparent	49		
CCCCCCCCC(=O)OCC1OC(OC2C(COC(=O)CCCCCCCC)OC(OC(C)=O)C(OC(=O)CCCCCCCC)C2OC(=O)CCCCCCCC)C(OC(=O)CCCCCCCC)C(OC(=O)CCCCCCCC)C1OC(=O)CCCCCCCC (mixture of isomers) [Ex 1.6]	sg22		sg		sg	sg	gel	gel		gel		gel	gel	gel	Less soluble. No	70	> 8	transparent	49		
CCCCCCCCC(=O)OCC1OC(OC2C(COC(=O)CCCCCCCC)OC(OC(=O)CCCCCCCC)C(OC(=O)CCCCCCCC)C2OC(=O)CCCCCCCC)C(OC(=O)CCCCCCCC)C(OC(=O)CCCCCCCC)C1OC(=O)CCCCCCCC (mixture of isomers) [REF 3, reference compound]															Slightly less soluble	47	translucent 4	transparent/	46		Observations ([3]; after 1 day at 37° C.): Some crystal growth on gel surface after; Observations ([3]; after 9 days at 37° C.): Crystals throughout gel after 9 days at; Observations ([3]; after 13 days at 37° C.): 37° C.; More crystals throughout gel after
CCCCCCCCC(=O)OC[C@H]1O[C@@H](O[C@H]2[C@H](OC(=O)CCCCCCCC)[C@@H](OC(=O)CCCCCCCC)C(OC(=O)CCCCCCCC)O[C@@H]2COC(=O)CCCCCCCC)[C@H](OC(=O)CCCCCCCC)[C@@H](OC(=O)CCCCCCCC)[C@@H]1OC(=O)CCCCCCCC (stereo partly shown) [REF 2, cellobiose octanonanoate]															Benchmark. Some	47	slight haze 5	transparent/	41	Large amount of crystals throughout	Observation ([3]; 10% structurant in 60:40 Panalene L14E:DC245, after 7 days at 37° C.): Slight loss of clarity after 7 days; Observation ([3]; 10% structurant in 60:40 Panalene L14E:DC245, after 7 days at 37° C., listed as REF2): Slight loss of clarity after 7 days at 37 °C; Observation ([3]; 10% structurant in 60:40 Panalene L14E:DC245, after 8 days at 37° C.): Fine crystals on surface after 8; Observation ([3]; 10% structurant in 60:40 Panalene L14E:DC245, after 8 days at 37° C., listed as REF2): Fine crystals on surface after 8 days at 37 °C; Observation ([3]; 10% structurant in 60:40 Panalene L14E:DC245, after 9 days at 37° C.): Fine needle crystals throughout gel; Observation ([3]; 10% structurant in 60:40 Panalene L14E:DC245, after 9 days at 37° C., listed as REF2): Fine needle crystals throughout gel after 9; Observation ([3]; 10% structurant in 60:40 Panalene L14E:DC245, after 13 days at 37° C., listed as REF2): More needle crystals in gel bulk and crystal; % T Ex 1.12 ([5]; CHME = Ex 1.12, CHME:REF2 at stated weight ratio, total 10% in 60:40 Silkflo 364NF:DC245): 41%; % T Ex 1.13 ([5]; CHME = Ex 1.13, CHME:REF2 at stated weight ratio, total 10% in 60:40 Silkflo 364NF:DC245): 41%
